Reference: patent US5792457A, “Antibody recognizing endothelial cell ligand for leukocyte CR3” (priority 1995, dated 1998)

Tests used:
[1] = test system: transendothelial migration of human neutrophils through HUVEC monolayers; experiment: Transendothelial migration (TEM) of neutrophils; format: cell-based; conditions: for % Inhibition of TEM: peptides 0.01 mM, native FHA 1 μM, at least 3 experiments with 6 wells/peptide
Excerpt: FIG. 26 is a graphical representation of the inhibition of transendothelial migration of neutrophils by FHA peptide Ca, native FHA and mAb IB4 in a concentration dependent fashion. FHA peptide Ca (.largecircle.); intact FHA (.quadrature.); and mAb IB4 (.tangle-solidup.). Values represent mean±standard deviation of at least 3 experiments with 6 wells/peptide.
Transendothelial migration of neutrophils was studied based on a method described by Muller et al. (1992), J. Exp. Med. 176: 819-828. Briefly, human neutrophils suspended in ice-cold Hanks balanced salt solution (HBSS) containing Ca^++ and Mg^++ (Sigma) were fluoresceinated by adding 3.3 μl/ml 5-(and 6-)carboxyfluorescein diacetate, succinimidyl ester (CFSE, Molecular Probes Inc., Oreg.). After incubation for 30 mins. on ice, neutrophils were washed twice in cold HBSS with Ca^++ and Mg^++ and resuspended in cold Medium 199 (M199, Sigma) to a final concentration of 10^6 /ml. Human umbilical vein endothelial cells were subcultured at confluence into 96-well tissue culture plates (Becton Dickinson Labware, Lincoln Park, N.J.) that were coated with hydrated collagen gel (Vitrogen; Collagen Corporation, Palo Alto, Calif.) and fibronectin. Endothelial cells were stimulated with 10 ng/ml TNF-alpha for 4 hours and washed three times with warm M199. Neutrophils (10^6 /ml) were preincubated with 0.01 mM of peptides or with 1 μM of native FHA in M199 for 5 mins. on ice before they were added in 100 μl aliquots to the endothelial cells. For positive control, neutrophils were pre-incubated with 25 μg/ml anti-CD18 mAb IB4. For negative control, neutrophils were treated with 25 μg/ml mAb W6/32 against HLA class I antigen (Dako, Carpinteria, Calif.). The cells were incubated for 1 hour at 37° C., 5% CO2. To terminate transmigration, the supernatant fluid was aspirated and the wells were filled with warm 1 mM EGTA (Sigma) in HBSS without Ca and Mg. The plates were covered with plate sealers (Dynatech, Alexandria, Va.) and centrifuged in an inverted position at 250 g for 3 mins. at room temperature. To remove residual non-transmigrated neutrophils from the endothelial cells, monolayers were washed twice with 200 μl of warm Hanks solution without Ca and Mg. Fluorescence was quantitated using a fluorescence counter (Millipore Cytofluorm™ 2300). The percentage of transmigrated neutrophils was determined by comparing the amount of fluorescence of test wells with that measured in collagen- and fibronectin-coated wells without endothelial cells. […] Percent inhibition of transendothelial migration of neutrophils was calculated by comparing the number of transmigrated cells in wells containing neutrophils treated with peptide to neutrophils treated with M199 alone and arbitrarily set at 100% transendothelial migration (TEM).
The procedures for determining the neutrophil adherence to cultured endothelial cells and the transendothelial migration of neutrophils were identical with those of Example 9. Control values were the same as those shown in Example 9.

[2] = test system: blood brain barrier permeability (CSF protein); experiment: Rabbit model for meningitis: protein in CSF (blood brain barrier permeability); format: in vivo, New Zealand white rabbits; conditions: for Total protein in CSF, 6 hours: 6 hours after inoculation (Example 11, 1 μM peptide; FHA 0.1 μM); for Total protein in CSF, 7 hours: 7 hours after inoculation (Example 11, 1 μM peptide; FHA 0.1 μM); for protein influx into CSF and generation of lactate (in words): 10 μM peptides (Table 10); for Protein in CSF: 6 hours after challenge
Description: The rabbit model was performed according to an established protocol. Specific pathogen free, New Zealand white rabbits (2 kg; Hare Marland, Nutley, N.J.) were anesthetized with valium (2.5 mg/kg, subcutaneously, Hoffman-LaRoche, Nutley, N.J.), ketamine (35 mg/kg, intra-muscularly, Aveco, Fort Dodge, Iowa) and xylazine (5 mg/kg, intramuscularly, Miles Laboratories, Shawnee, Kans.) and a helmet of dental acrylic was affixed to the calvarium. Twenty four hours later, the rabbits were anesthetized with ethyl carbamate (1.75 g/kg; Aldrich Chemical Co., Milwaukee, Wis.) and pentobarbital (15 mg/kg; Abbott Laboratories, Abbott Park, Ill.) and placed in a stereotaxic frame. A spinal needle was introduced into the cisterna magna and 300 μl of CSF was withdrawn. The animals were challenged intracisternally with 10^8 heat killed, unencapsulated pneumococcus strain R6 introduced in 200 μl of saline (time 0). One hour later, animals were treated with peptides dissolved in 1 ml of saline by intravenous injection into the right marginal ear vein. The concentration of FHA was 0.1 μM and that of the FHA Ia, Factor X II, and scrambled FHA II peptides was 10 μM. For the acetyl-FHA II, acetyl/amide-FHA II, dimer of FHA II and trimer of FHA II peptides, the concentration was 10^-3 μM. The concentration of FHA II is given in the results section. Samples of CSF were withdrawn at hourly intervals after pneumococcal inoculation and leukocyte density was measured using a cell counter (Coulter Electronics Inc., Hialeah, Fla.). CSF samples were centrifuged at 10,000×g for 5 minutes and the supernatant was stored at -70° C. until assayed for protein concentration using the bicinchoninic acid method (ECA Kit, Pierce Chemical Co., Rockford, Ill.) and for lactate concentration (Lactate Detection Kit, Sigma, St. Louis, Mo.). Statistically significant differences between treatments were determined by a one way analysis of variance test.
Loss of barrier function of the cerebral capillary endothelium during inflammation is reflected by an influx of serum proteins into the CSF. […] To examine if the peptides were able to ameliorate these measures of cerebral injury, CSF protein and lactate concentrations were measured hourly in peptide-treated and control animals (Table 10).
Mean values for CSF lactate and protein at time 0 were 18.6±5.8 and 0.8±0.2 respectively. Ten control animals received phosphate-buffered saline. The concentration of FHA II intravenously injected one hour after challenge with pneumococci was 10 μM. Values represent mean±standarddeviation of concentrations in CSF at 6 hours after pneumococcal challenge (n≥4 for peptide treated animals; n=4 for FHA). *Statistically significant difference as compared to control at p<0.02 (Mann-Whitney test).
Again, mean values for CSF lactate and protein at time 0 were 18.6±5.8 and 0.8±0.2, respectively. Ten control animals received phosphate-buffered saline. The concentrations of FHA II intravenously injected was 10^-3 μM. Values represent mean±standard deviation of concentrations in CSF at 6 hours after pneumococcal administration (n≥4 per group).
The anti-inflammatory effects of the administered peptides were assessed in the rabbit model for meningitis by the procedures described in Example 10. The animals received 1 ml of 1 uM peptide intravenously. In a slight departure from the protocol described in Example 10, samples of blood were drawn from the left marginal ear vein 30 minutes after the administration of the peptides to determine peripheral leukocyte concentrations.
Values represent mean ±standard deviation of at least four animals per group. ^1 Time after intracisternal inoculation of pneumococci. *Statistically significant difference as compared to control at p<0.02 (Mann-Whitney test).

Row | Substance | % Inhibition of TEM [1] | Total protein in CSF, 6 hours [2] | Total protein in CSF, 7 hours [2] | protein influx into CSF and generation of lactate (in words) [2] | Protein in CSF ([2]; peptides 10 μM, FHA 0.1 μM) | further results
1 | AADPHQGVLAQGDIIMDAKG [FHA Cc] | 11 ± 11% | 1.36 ± 0.16 mg/mL | 1.90 ± 0.22 mg/mL | – | – | –
2 | Ac-ETKEVDG-NH2 [Acetyl/Amide-FHA II] | – | – | – | significantly reduced protein influx into the CSF and generation of lactate | 1.2 ± 0.6 mg/ml CSF | –
3 | DEETVK [scrambled FHA II, reference compound] | 4 ± 5% | – | – | – | 1.9 ± 0.3 mg/ml CSF | –
4 | ETKEVDG [FHA II] | 21 ± 10% | – | – | significantly reduced protein influx into the CSF and generation of lactate | 1.4 ± 0.6 mg/ml CSF | protein and lactate in CSF (in words) ([2]; 10^-3 μM): ineffective at this dose; Protein in CSF ([2]; 10^-3 μM): 2.45 ± 0.22 mg/ml CSF
5 | GTLLLRNDALTENGTVTISA [FHA Cd] | 6 ± 6% | 1.71 ± 0.19 mg/mL | 2.03 ± 0.57 mg/mL | – | – | –
6 | GYDTKQEDG [Factor X II] | 14 ± 9% | – | – | no significant reduction | 1.6 ± 0.7 mg/ml CSF | –
7 | LGYQAK (UniProt P12255 1979-1984, looked up, fragment) [FHA Ia] | 23 ± 5% | – | – | no significant reduction | 1.8 ± 0.4 mg/ml CSF | –
8 | RADPHQGVLAQGDIIMDAKG [FHA Cb] | 8 ± 9% | 1.91 ± 0.24 mg/mL | 2.28 ± 0.28 mg/mL | – | – | –
9 | RGDPHQGVLAQGDIIMDAKG [FHA Ca] | 83 ± 8% | 1.18 ± 0.39 mg/mL | 1.69 ± 0.41 mg/mL | – | – | concentration required for inhibition of TEM similar to native FHA (82±1% at 1 μM) [1]: 10 µM; % Inhibition of TEM ([1]; listed as FHA peptide Ca): 83±8%; influx of serum protein into CSF (in words) ([2]; 1 μM, entire observation period): reduced the influx of serum protein significantly during the entire observation period
10 | native FHA: Filamentous hemagglutinin, 220kD surface associated protein of Bordetella pertussis (List Biologicals) | 82±1% | 1.70 ± 0.33 mg/mL | 1.86 ± 0.76 mg/mL | significantly protective for protein influx and lactate generation | 1.3 ± 0.3 mg/ml CSF | % Inhibition of TEM ([1]; listed as FHA): 82 ± 1%; % Inhibition of TEM ([1]; listed as Intact FHA): 82±1%
